# Legend:
# [1] = test system: homologous PCA reaction; experiment: Homologous passive cutaneous anaphylaxis (PCA) reaction; assay type: in vivo, rat (SD (Sprague-Dawley) strain); details: rat; for Inhibition effect of PCA reaction: oral
# Protocol: Anti-egg albumin rat serum in amount of 0.1 ml was intracutaneously injected to the shaved back of a mail rat of SD (Sprague-Dawley) strain weighing 200±30 g. The egg-albumin as antigen in amount of 5 mg/Kg were intravenously injected, together with 40 mg/Kg of dye (Evans blue) 24 hours after antiserum injection. The test materials were given at the respective times before antigen injection as 5% suspension in gum arabic in the case of oral administration (p. o.), while as a solution in physiological salt solution in the case of the intravenous injection (i. v.). The rat was sacrificed 30 minutes after the injection of the antigen, and the skin was removed. The amount of the dye leaked at the reaction locus was measured by extraction method according to Katayama et al.; Microbiol. Immunol. 22, 89-101 (1978), to determine the inhibiting rate on the homologous PCA reaction. There were elected, as the control, cromoglycate and ethyl 6,7-dihydro-6-methyl-8H-pyrano[3,2-g]chromone-2-carboxylate which are known in the art.
# Regarding 6,7-dihydro-6,8,8,10-tetramethyl-8H-pyrano[3,2-g] chromone-2-carboxylic acid of this invention, there were determined, in the same manner, inhibition effect of PCA reaction when oral administration was carried out.
# [2] = cited from earlier work
# [3] = test system: actively sensitized rat peritoneal mast cells; experiment: Histamine release from actively sensitized rat peritoneal mast cells mediated by antigen-antibody reaction; assay type: cell-based, rat (SD strain); details: Mast cell, egg-albumine 10 μg/ml, 37° C., read-out: Inhibition rate of histamine release
# Protocol: (2) Histamine release from actively sensitized rat peritoneal mast cells mediated by antigen-antibody reaction
# A male rate of SD strain weighing 200-400 g was used in this experiment. The sensitization of rats was performed by the method according to Kusner et al.; J. Pharmcol. & Exper. Ther, 184, 41-44 (1973). The mast cells were isolated 14 days after the sensitization by the method according to Johnson, et al.; Am. J. Physiol. 216, 453-459 (1969). The number of the mast cells was adjusted to 2×10^5 /ml. Each one milliliter of the cell suspension was divisionally poured into siliconized test tubes, and placed in an incubator adjusted to 37° C. The egg-albumine, as antigen, was added thereto at the final concentration of 10 μg/ml. At the same time of the addition of antigen, there is added sodium 6,7-dihydro-6,8,8,10-tetramethyl-8H-pyrano[3,2-g] chromone-2-carboxylate according to this invention in the respective concentrations.
# The amount of histamine released from the mast cells was determined fluorimetrically according to Suzuki's method [Keio Igaku, 50, 263-270 (1973) Japan].
smiles,measurement,setting,value
"Cc1c2c(cc3c(=O)cc(C(=O)O)oc13)C(C)CC(C)(C)O2 (stereo not shown) [6,7-Dihydro-6,8,8,10-tetramethyl-8H-pyrano [3,2-g] chromone-2-carboxylic acid]","Inhibition effect of PCA reaction, dose dependence",[1]; oral administration,dose-dependent inhibiting effect
same,Time of administration before antigen with the most remarkable inhibition effect of PCA reaction,[1]; oral administration,15 to 30 min
same,Inhibition effect of PCA reaction,"[1]; 1 mg/Kg, before 5 minutes",15.1%
same,Inhibition effect of PCA reaction,"[1]; 3 mg/Kg, before 5 minutes",54.8%
same,Inhibition effect of PCA reaction,"[1]; 10 mg/Kg, before 2 minutes",44.1%
same,Inhibition effect of PCA reaction,"[1]; 10 mg/Kg, before 5 minutes (dose series)",78.5%
same,Inhibition effect of PCA reaction,"[1]; 10 mg/Kg, before 5 minutes (time-course series)",62.2%
same,Inhibition effect of PCA reaction,"[1]; 10 mg/Kg, before 15 minutes",82.0%
same,Inhibition effect of PCA reaction,"[1]; 10 mg/Kg, before 30 minutes",84.3%
same,Inhibition effect of PCA reaction,"[1]; 10 mg/Kg, before 60 minutes",54.3%
same,Inhibition effect of PCA reaction,"[1]; 30 mg/Kg, before 5 minutes",90.3%
"O=C(O)c1cc(=O)c2c(OCC(O)COc3cccc4oc(C(=O)O)cc(=O)c34)cccc2o1 [Chromoglycate, reference compound]",Inhibition rate of PCA reaction,"[1]; 6 mg/Kg i.v., at the same time",88.6%
same,Inhibition rate of PCA reaction,"[1]; 20 mg/Kg p.o., before one hour",0%
same,Effect on oral administration,[2],not effective when it is orally administered
"CCOC(=O)c1cc(=O)c2c(C)c3c(c(C)c2o1)OC(C)(C)C(C)C3 (stereo not shown) [Ethyl 6,7-dihydro-5,7,8,8,10-pentamethyl-8H-pyrano[3,2-g]chromone-2-carboxylate]",Inhibition rate of PCA reaction,"[1]; 20 mg/Kg p.o., before one hour",47.9%
"CCOC(=O)c1cc(=O)c2cc3c(c(C)c2o1)OC(C)(C)CC3C (stereo not shown) [Ethyl 6,7-dihydro-6,8,8,10-tetramethyl-8H-pyrano [3,2-g] chromone-2-carboxylate]",Inhibition rate of PCA reaction,"[1]; 20 mg/Kg p.o., before one hour",63.8%
"CCOC(=O)c1cc(=O)c2c(C)c3c(c(CC)c2o1)OC(C)(C)CC3C (stereo not shown) [Ethyl 6,7-dihydro-10-ethyl-5,6,8,8-tetramethyl-8H-pyrano[3,2-g]chromone-2-carboxylate]",Inhibition rate of PCA reaction,"[1]; 20 mg/Kg p.o., before one hour",64.4%
"CCOC(=O)c1cc(=O)c2cc3c(c(OC)c2o1)OC(C)(C)CC3C (stereo not shown) [Ethyl 6,7-dihydro-10-methoxy-6,8,8-trimethyl-8H-pyrano [3,2-g] chromone-2-carboxylate]",Inhibition rate of PCA reaction,"[1]; 20 mg/Kg p.o., before one hour",62.2%
"Cc1c2c(cc3c(=O)cc(C(=O)O)oc13)C(C)CC(C)(C)O2 (stereo not shown) [Sodium 6,7-dihydro-6,8,8,10-tetramethyl-8H-pyrano [3,2-g] chromone-2-carboxylate]",Inhibition rate of PCA reaction,"[1]; 0.4 mg/Kg i.v., at the same time",65.2%
same,Inhibition rate of PCA reaction,"[1]; 20 mg/Kg p.o., before one hour",64.9%
same,inhibition at 0.2 µM,[3]; 0.2 μM,48.2%
same,inhibition at 1 µM,[3]; 1.0 μM,66.1%
same,inhibition at 2 µM,[3]; 2.0 μM,73.2%
same,inhibition at 10 µM,[3]; 10.0 μM,60.7%
"CCOC(=O)c1cc(=O)c2cc3c(cc2o1)OCCC3C (stereo not shown) [ethyl 6,7-dihydro-6-methyl-8H-pyrano[3,2-g]chromone-2-carboxylate, reference compound]",Inhibition rate of PCA reaction,"[1]; 20 mg/Kg p.o., before one hour",23.7%

# From patent publication US4208426A, “Pyranochromone derivatives and therapeutic composition comprising same for treatment of allergic diseases” (Eisai Co., Ltd., priority 1977, dated 1980)
